Measured values: patent US4711898A, “4-quinolone derivatives having anti-inflammatory, anti-allergic, antitussive, expectorant and antithrombotic activity” (Nippon Shinyaku Co., Ltd., priority 1982, dated 1987)

How the values were obtained:
[1] = tested on: passive cutaneous anaphylaxis (DNP-As homocytotropic antiserum); experiment: passive cutaneous anaphylatic assay (PCA) in rats; type: in vivo, Wistar strain rats; details: 10 mg/kg orally, one hour before antigen; for inhibition in vivo at 10 mg/kg: Rattus norvegicus, po, 1 h, read-out: PCA Inhibition Ratio %; for PCA Inhibition Ratio %: Na salt
Protocol: (§1) The compounds of the present invention have been evaluated for their anti-allergenic action by passive cutaneous anaphylatic assay (PCA) in rats and by measuring the anti-SRS-A action using ileus of guinea pigs.
(i) Antiserum abundant in homocytotropic antibody is prepared by the same method as Tada and Okumura did (cf. Journal of Immunology, vol. 106, page 1002, 1971). Thus, 1 mg (calculated as an amount of protein) of DNP-As (2,4-dinitrophenylcoupled ascaris extract) prepared by methods of Strejan and Campbell (Journal of Immunology, vol. 98, p. 893, 1967) and of Eisen (Journal of Amer. Chem. Soc., vol. 75, p 4593, 1953) and 1×10^10pertussis vaccine are administered to each paw of Wistar strain rats (180 to 200 grams body weights) by dividing the dose by four. Five days later, 0.5 mg of DNP-As is administered into muscle of back. Eight days later from the initial immunization, blood is taken from discending aorta under anesthetizing with ether, the resulting serum is stored at -80° and is melted before use.
(ii) Effect of tested compounds is investigated as follows:
Anti-serum obtained by th method (i) is diluted with physiological saline solution double by double successively and 0.05 ml of each diluted solution is administered into the back of Wistar strain rats (140 to 160 grams body weight) intradermally. After 72 hours, a solution of 2 mg (calculated as protein) of DNP-As and 2.5 mg of Evans Blue dissolved in 1 ml of physiological saline solution is administered intraveously at a dose of 5 ml/kg. After 30 minutes from the antigen solution administration, the animals are killed and the diameters of blue spots which appeared at the place where antiserum was administered were measured. The PCA test is conducted by the same method as already described using a diluted solutions of antiserum which always show 10 mm or more of spot diameters and the effect of the test compounds is judged. Thus antiserum diluted solutions are administered into two places in the back. Test compounds are administered orally at the dose of 10 mg/kg one hour before administration of the antigen solution. From the skin of reacted parts of killed animals, leaked or emitted dyestuff is extracted and the amount of the dyestuff is measured. The inhibition ratio is calculated by the following expression: [formula] in which A' is an amount of dyestuff in the group treated with the test compounds and A is that in the control group.

[2] = tested on: SRS-A (slow reacting substance of anaphylaxis) contraction of ileum; experiment: Anti-SRS-A action using ileus of guinea pigs; type: cell-based, Hartley strain male guinea pigs; details: 5 min, guinea pig ileum, SRS-A 20 units, compound five minutes before; for inhibition at 1 µM: Cavia porcellus, 1/1000 mM, read-out: 1/1000 mM SRS-A Inhibition Ratio %; for 1/1000 mM SRS-A Inhibition Ratio %: Na salt, 1 µM
Protocol: as §1
Anti-SRS-A action (An anti-acton against slow reacting substance of anaphylaxis).
Hartley strain male guinea pigs (300 to 350 grams body weight) are killed and 1.0 to 1.5 cm of ileum is immeidiately excised from ileocecal parts and is suspended in 10 ml of Tyrode solution (95% 02 -5% CO2 saturation) containing 10^-7 g/ml of atropine and 10^-6 g/ml of pyrilamine. SRS-A (20 units) (the amount of SRS-A showing the same contradiction as 5 ng of histamine is defined as 1 unit) prepared by using sensitized guinea pig lung is given to cause contraction there. Then antagonistic action of test compounds treated five minutes ago against the contraction is measured and recorded via isotonic transducer. [formula] in which A' is a height of contraction of SRS-A+test compound and A is that of SRS-A.

Row | Structure (SMILES) | inhibition in vivo at 10 mg/kg [1] [%] | inhibition at 1 µM [2] [%] | also measured
1 | C=CCn1c(-c2ccccc2)cc(=O)c2cc(C(=O)O)ccc21 [Example 18] | 26.5 | 24.3 | 
2 | Cc1ccc(-c2cc(=O)c3cccc(C(=O)O)c3[nH]2)c(C)c1 [Example 95] | 24.2 | 22.8 | 
3 | COC(=O)c1ccc2[nH]c(-c3ccc(Cl)c(Cl)c3)cc(=O)c2c1 [Example 37] | 17.1 | 24.3 | 
4 | CCn1c(-c2ccccc2)cc(=O)c2cc(C(=O)O)ccc21 [Example 14] | 16.4 | 28.9 | 
5 | Cn1c(-c2ccccc2)cc(=O)c2cc(C(=O)O)ccc21 [Example 8, 1-Methyl-2-phenyl-4-quinolone-6-carboxylic acid] | 16.2 | 22 | 
6 | CC(C)OC(=O)c1ccc2c(c1)C(=O)CC(c1ccccc1)=N2 [Example 5, Isopropyl 2-phenyl-4-quinolone-6-carboxylate] | 26.2 | 36.7 | 
7 | COC(=O)c1ccc2[nH]c(-c3ccc(Cl)cc3Cl)cc(=O)c2c1 [Example 34] | 17.4 | 19.3 | 
8 | CCn1c(-c2ccccc2)cc(=O)c2cc(C(=O)OC)ccc21 [Example 13] | 18.9 | 25.4 | 
9 | Cc1ccc(-c2cc(=O)c3cccc(C(=O)OCCO)c3[nH]2)cc1C [Example 137] | 20 | 10.8 | 
10 | COC(=O)c1ccc2[nH]c(-c3ccccn3)cc(=O)c2c1 [Example 74] | 23.1 | 25 | 
11 | CCOc1ccccc1-c1cc(=O)c2cc(C(=O)O)ccc2[nH]1 [Example 59] | 15.8 | 24.6 | 
12 | O=C(O)c1ccc2[nH]c(-c3cc(Cl)ccc3Cl)cc(=O)c2c1 [Example 40] | 25.4 | 27.5 | 
13 | COC(=O)c1ccc2[nH]c(-c3ccc(C)cc3)cc(=O)c2c1 [Example 46] | 27.3 | 19.8 | 
14 | CCOC(=O)c1cccc2c(=O)cc(-c3ccc(C)c(C)c3)[nH]c12 [Example 105] | 17.3 | 10.4 | 
15 | Cc1ccc(-c2cc(=O)c3cc(C(=O)O)ccc3[nH]2)cc1 [Example 47] | 17.3 | 18.9 | 
16 | O=C(O)c1ccc2[nH]c(-c3ccccn3)cc(=O)c2c1 [Example 75] | 20.4 | 28.9 | 
17 | CCCCCCOC(=O)c1cccc2c(=O)cc(-c3ccccc3Cl)[nH]c12 [Example 113] | 10.5 | 20.5 | 
18 | C=CCn1c(-c2ccccc2)cc(=O)c2cc(C(=O)OC)ccc21 [Example 17] | 20.4 | 22.7 | 
19 | O=C(O)c1ccc2[nH]c(-c3ccc(Cl)cc3Cl)cc(=O)c2c1 [Example 36] |  |  | PCA Inhibition Ratio % ([1]; listed as 2,4-Dichloro): 20.4%; 1/1000 mM SRS-A Inhibition Ratio % ([2]; listed as 2,4-Dichloro): 14.5%
20 | Cc1ccc(-c2cc(=O)c3cc(C(=O)O)ccc3[nH]2)c(C)c1 [Example 55] | 16.8 | 17.5 | 
21 | O=C(OCCCCCO)c1cccc2c(=O)cc(-c3ccccc3Cl)[nH]c12 [Example 116] | 15 | 23.7 | 
22 | COC(=O)c1ccc2[nH]c(-c3ccc(OC)cc3)cc(=O)c2c1 [Example 62] | 19 | 27.4 | 
23 | O=C(OCCc1ccccc1)c1ccc2c(c1)C(=O)CC(c1ccccc1)=N2 [Example 6, Phenethyl 2-phenyl-4-quinolone-6-carboxylate] | 24.3 | 22.8 | 
24 | Cc1ccccc1-c1cc(=O)c2cccc(C(=O)OCCO)c2[nH]1 [Example 134] | 10.8 | 5.2 | 

Row | Structure (SMILES) | inhibition in vivo at 10 mg/kg [1] [%] | inhibition at 1 µM [2] [%] | also measured
25 | O=C(O)c1ccc2[nH]c(-c3ccc(Cl)cc3Cl)cc(=O)c2c1 [Example 35] | 39.4 | 25.6 | 
26 | N#CCOC(=O)c1cccc2c(=O)cc(-c3ccccc3Cl)[nH]c12 [Example 121] | 54.4 | 3.4 | 
27 | O=C(O)c1cccc2c(=O)cc(-c3cccc(Cl)c3)[nH]c12 [Example 87] | 19.3 | 20.7 | 
28 | COC(=O)c1ccc2[nH]c(-c3cccc(C(F)(F)F)c3)cc(=O)c2c1 [Example 52] | 25 | 21.3 | 
29 | CCCCCCCCc1ccc(-c2cc(=O)c3cccc(C(=O)OCC)c3[nH]2)cc1 [Example 96] | 21.5 | 23.8 | 
30 | COc1ccc(-c2cc(=O)c3cc(C(=O)O)ccc3[nH]2)cc1 [Example 63] | 18.4 | 23 | 
31 | COC(=O)c1ccc2c(c1)C(=O)C(C)C(c1ccccc1)=N2 (stereo not shown) [Example 9, Methyl 3-methyl-2-phenyl-4-quinolone-6-carboxylate] | 26.8 | 54.8 | 
32 | O=C(O)c1ccc2[nH]c(-c3cccc(Cl)c3)cc(=O)c2c1 [Example 31] |  |  | PCA Inhibition Ratio % ([1]; listed as 3-Chloro): 24.4%; 1/1000 mM SRS-A Inhibition Ratio % ([2]; listed as 3-Chloro): 25.5%
33 | O=C(O)c1cccc2c(=O)cc(-c3ccccc3)[nH]c12 [Example 82] |  |  | PCA Inhibition Ratio % ([1]; listed as H): 10.0%; 1/1000 mM SRS-A Inhibition Ratio % ([2]; listed as H): 27.3%
34 | COC(=O)c1ccc(-c2cc(=O)c3cc(C(=O)OC)ccc3[nH]2)cc1 [Example 68] | 19.8 | 36.8 | 
35 | O=C(O)c1ccc2[nH]c(-c3cccs3)cc(=O)c2c1 [Example 79] | 19.8 | 19.5 | 
36 | COC(=O)c1ccc2[nH]c(-c3ccccc3OC(C)C)cc(=O)c2c1 [Example 60] | 21.2 | 58.8 | 
37 | O=C(OCCCCCCO)c1cccc2c(=O)cc(-c3ccccc3Cl)[nH]c12 [Example 117] | 50 | 8.7 | 
38 | O=C(O)c1ccc2[nH]c(-c3cccnc3)cc(=O)c2c1 [Example 73] | 20.4 | 23.8 | 
39 | O=C(O)c1ccc2[nH]c(-c3cccc(C(F)(F)F)c3)cc(=O)c2c1 [Example 53] | 22.4 | 30 | 
40 | O=C(O)c1ccc2[nH]c(-c3ccccc3Cl)cc(=O)c2c1 [Example 23] |  |  | PCA Inhibition Ratio % ([1]; listed as 2-Chloro): 18.7%; 1/1000 mM SRS-A Inhibition Ratio % ([2]; listed as 2-Chloro): 24.9%
41 | CCCCCc1ccc(-c2cc(=O)c3cc(C(=O)O)ccc3[nH]2)cc1 [Example 51] | 22.7 | 61.4 | 
42 | Cc1c(-c2ccccc2)[nH]c2ccc(C(=O)O)cc2c1=O [Example 10] | 22.4 | 21 | 
43 | O=C(O)c1ccc2[nH]c(-c3ccccc3Br)cc(=O)c2c1 [Example 25] | 17.2 | 25.7 | 
44 | O=C(OCCOCCO)c1cccc2c(=O)cc(-c3ccccc3Cl)[nH]c12 [Example 128] | 10.7 | 25 | 
45 | COC(=O)c1ccc2[nH]c(-c3cccnc3)cc(=O)c2c1 [Example 72] | 17.8 | 22 | 
46 | COC(=O)c1ccc2[nH]c(-c3ccc(OC)c(OC)c3)cc(=O)c2c1 [Example 66] | 25.4 | 25.7 | 
47 | CCCOC(=O)c1cccc2c(=O)cc(-c3ccccc3Cl)[nH]c12 [Example 111] | 2.4 | 7.8 | 
